Literature values as cited in patent US20110076334A1, “METHODS AND COMPOSITIONS FOR TREATMENT OF RAYNAUD'S PHENOMENON” (priority 2009, published 2011).
Like-named read-outs stand apart in the source and are kept apart here.

Experiments:
[1] = clevidipine
[2] = ultra-short acting calcium channel blocker; marketed injectable emulsion
[3] = in vivo

Row | initial phase half-life [1] | terminal half-life [1] | half-life (second phase) [3] | initial phase half-life [3] | terminal half-life [3] | Molecule | onset of action [2] [min]
1 | approximately 1 minute | approximately 15 minutes |  |  |  | CCCC(=O)OCOC(=O)C1=C(C)NC(C)=C(C(=O)OC)[C@H]1c1cccc(Cl)c1Cl (stereo in doubt) [Clevidipine, butyroxymethyl methyl 4-(2′,3′-dichlorophenyl)-2,6-dimethyl-1,4-dihydropyridine-3,5-dicarboxylate] | 1 to 2
2 |  |  | about 44.8 minutes | approximately 2.7 minutes | approximately 14.4 hours | (±)-2-(benzyl-methyl amino) ethyl methyl 1,4-dihydro-2,6-dimethyl-4-(m-nitrophenyl)-3,5-pyridinedicarboxylate monohydrochloride [nicardipine] | 
